# Results published in patent US11707440B2 (priority 2017, dated 2023).
# Read-outs that look alike come from different tables or passages of the source.
# Tests used:
# [1] = test system: adult female Sprague Dawley rats, PCG/RSC; conditions: 3 hours after a single intraperitoneal injection (Jevtovic-Todorovic 2000); cited from earlier work
# [2] = for Stock solution stability: stock solutions
# Description: This example provides an LC-MS/MS method for the determination of ketamine and norketamine in sodium heparin human plasma using ketamine-d4 and norketamine-d4 as the respective internal standards (IS).
# NMDA receptor = conditions: cited from earlier work
Compound,ED50-value for the induction of neuronal vacuolation in the PCG/RSC [1] [mg/kg body weight],QC sample freeze/thaw stability ([2]; freeze (−20° C.)/thaw (ice-water bath)),QC sample freeze/thaw stability ([2]; freeze (−20° C.)/thaw (room temperature)),"QC sample bench-top stability ([2]; human plasma, room temperature) [hours at room temp]","QC sample long-term storage stability ([2]; human plasma, −20° C.) [days at −20 °C]",Processed sample stability ([2]; room temperature) [hours at room temperature],Whole Blood Stability ([2]; room temperature and ice-water bath (0-4° C.)),"Stock solution stability (spike solutions) ([2]; spike solutions, −20° C.)",Stock solution stability ([2]; room temperature under white light) [h],Stock solution stability ([2]; −20° C.) [h],Potency of the (+)-enantiomer relative to the (−)-enantiomer (NMDA receptor) [times]
"CNC1(c2ccccc2Cl)CCCCC1=O (racemic) [ketamine, reference compound]",47.5,3 freeze (−20° C.)/thaw (ice-water bath) cycles,3 freeze (−20° C.)/thaw (room temperature) cycles,68.5,1552,146.5,120 minutes at room temperature and in an ice-water bath,610 days at −20 °C for ketamine/norketamine spike solutions,6,15100,–
(+)MK-801 maleate,–,–,–,–,–,–,–,–,–,–,7
